Source: ChEMBL document CHEMBL6109137, “Design, Synthesis, Evaluation, and SAR of 5-Phenylisoindoline Derivatives, a Potent Class of Small-Molecule Inhibitors Targeting the Programmed Cell Death-1/Programmed Cell Death-Ligand 1 (PD-1/PD-L1) Interaction” (J Med Chem, 2025)
The source made the active and inactive calls. No cut-off for these calls is given here.

Key:
[1] = AUC (0 to 24 hrs) in Sprague-Dawley rat at 1 mg/kg, iv measured for 24 hrs by LC-MS/MS analysis; type: ADME, organism-based; conditions: in vivo
Mus musculus [2] = experiment: Restoration of immune function in C57BL/6J mouse implanted with mouse MC38 cells assessed as increase in serum IL-2 level administered intraperitoneally once daily for 13 days by ELISA; type: functional, organism-based; conditions: dose 5-20 mg/kg, route ip, time 13.0 day
[3] = Toxicity in C57BL/6J mouse implanted with mouse MC38 cells assessed as change in CREA-SOX level at 40 to 160 mg/kg, IG qd for 7 days; type: organism-based; conditions: in vivo, po, 168 h, dose 40-160 mg/kg, time 7 day
MC-38 [4] = experiment: Antitumor activity against mouse MC38 cells implanted in C57BL/6J mouse at 160 mg/kg, IG qd for 7 days relative to control; type: functional; conditions: MC-38, po, 168 h, time 7 day, read-out: TGI
[5] = Toxicity in C57BL/6J mouse implanted with mouse MC38 cells assessed as brain weight ratio at 40 to 160 mg/kg, IG qd for 7 days; type: organism-based; conditions: in vivo, po, 168 h, dose 40-160 mg/kg, time 7 day
[6] = Drug uptake in mouse MC38 cells incubated for 48 hrs by LC-MS/MS analysis; type: ADME, cell-based; conditions: mc-38, 48 h, dose 1-10 µM
[7] = Toxicity in C57BL/6J mouse implanted with mouse MC38 cells assessed as change in MCV count at 40 to 160 mg/kg, IG qd for 7 days; type: organism-based; conditions: in vivo, po, 168 h, dose 40-160 mg/kg, time 7 day
[8] = Toxicity in C57BL/6J mouse implanted with mouse MC38 cells assessed as change in AST level at 40 to 160 mg/kg, IG qd for 7 days; type: organism-based; conditions: in vivo, po, 168 h, dose 40-160 mg/kg, time 7 day
[9] = Toxicity in C57BL/6J mouse implanted with mouse MC38 cells assessed as change in heart index at 5 to 20 mg/kg, ip qd for 13 days; type: organism-based; conditions: in vivo, 312 h, dose 5-20 mg/kg, time 13 day
PBMC = experiment: Inhibition of apoptosis in human PBMC cells assessed as reduction in PD-L1-induced proportion of terminal phase apoptotic cells by flow cytometry; type: functional, cell-based
[10] = Toxicity in C57BL/6J mouse implanted with mouse MC38 cells assessed as change in serum urea level at 5 to 20 mg/kg, ip qd for 13 days; type: organism-based; conditions: in vivo, 312 h, dose 5-20 mg/kg, time 13 day
[11] = AUC (0 to 24 hrs) in Sprague-Dawley rat at 10 mg/kg, ip measured for 24 hrs by LC-MS/MS analysis; type: ADME, organism-based; conditions: in vivo
[12] = Toxicity in C57BL/6J mouse implanted with mouse MC38 cells assessed as injury in lung at 5 to 20 mg/kg, ip qd for 13 days by H and E staining based analysis; type: organism-based; conditions: in vivo, 312 h, dose 5-20 mg/kg, time 13 day
[13] = Toxicity in C57BL/6J mouse implanted with mouse MC38 cells assessed as body weight change at 40 to 160 mg/kg, IG qd for 7 days; type: organism-based; conditions: in vivo, po, 168 h, dose 40-160 mg/kg, time 7 day
[14] = Toxicity in C57BL/6J mouse implanted with mouse MC38 cells assessed as change in HCT count at 40 to 160 mg/kg, IG qd for 7 days; type: organism-based; conditions: in vivo, po, 168 h, dose 40-160 mg/kg, time 7 day
MC-38 [15] = experiment: Antitumor activity against mouse MC38 cells implanted in C57BL/6J mouse at 5 to 20 mg/kg, ip qd; type: functional, organism-based; conditions: dose 5-20 mg/kg, time 13.0 day
[16] = Toxicity in C57BL/6J mouse implanted with mouse MC38 cells assessed as change in excised body weight at 40 to 160 mg/kg, IG qd for 7 days; type: organism-based; conditions: in vivo, po, 168 h, dose 40-160 mg/kg, time 7 day
[17] = Toxicity in C57BL/6J mouse implanted with mouse MC38 cells assessed as change in serum AST level at 5 to 20 mg/kg, ip qd for 13 days; type: organism-based; conditions: in vivo, 312 h, dose 5-20 mg/kg, time 13 day
[18] = Cmax in Sprague-Dawley rat at 10 mg/kg, ip measured for 24 hrs by LC-MS/MS analysis; type: ADME, organism-based; conditions: in vivo
[19] = Toxicity in C57BL/6J mouse implanted with mouse MC38 cells assessed as change in RBC count at 40 to 160 mg/kg, IG qd for 7 days; type: organism-based; conditions: in vivo, po, 168 h, dose 40-160 mg/kg, time 7 day
MC-38 [20] = experiment: Antitumor activity against mouse MC38 cells implanted in C57BL/6J mouse assessed as tumor growth inhibition administered intragastrically once daily for 7 days; type: functional, cell-based; conditions: dose 40-160 mg/kg, route ig, time 7.0 day
[21] = Toxicity in C57BL/6J mouse implanted with mouse MC38 cells assessed as change in monocytes count at 40 to 160 mg/kg, IG qd for 7 days; type: organism-based; conditions: in vivo, po, 168 h, dose 40-160 mg/kg, time 7 day
[22] = Toxicity in C57BL/6J mouse implanted with mouse MC38 cells assessed as change in HGB count at 40 to 160 mg/kg, IG qd for 7 days; type: organism-based; conditions: in vivo, po, 168 h, dose 40-160 mg/kg, time 7 day
[23] = AUC (0 to 24 hrs) in Sprague-Dawley rat at 20 mg/kg, po measured for 24 hrs by LC-MS/MS analysis; type: ADME, organism-based; conditions: in vivo
[24] = AUC (0 to infinity) in Sprague-Dawley rat at 20 mg/kg, po measured for 24 hrs by LC-MS/MS analysis; type: ADME, organism-based; conditions: in vivo
MC-38 [25] = experiment: Antitumor activity against mouse MC38 cells implanted in C57BL/6J mouse assessed as increase in ratio of CD8+/CD4+ T cells at 20 mg/kg, ip qd for 13 days by flow cytometry; type: functional, organism-based; conditions: time 13.0 day
[26] = Toxicity in C57BL/6J mouse implanted with mouse MC38 cells assessed as injury in liver at 5 to 20 mg/kg, ip qd for 13 days by H and E staining based analysis; type: organism-based; conditions: in vivo, 312 h, dose 5-20 mg/kg, time 13 day
[27] = Clearance in Sprague-Dawley rat at 20 mg/kg, po measured for 24 hrs by LC-MS/MS analysis; type: ADME, organism-based; conditions: in vivo
[28] = Clearance in Sprague-Dawley rat at 1 mg/kg, iv measured for 24 hrs by LC-MS/MS analysis; type: ADME, organism-based; conditions: in vivo
[29] = Oral bioavailability in Sprague-Dawley rat at 20 mg/kg measured for 24 hrs by LC-MS/MS analysis; type: ADME, organism-based; conditions: in vivo
[30] = Toxicity in C57BL/6J mouse implanted with mouse MC38 cells assessed as change in spleen index at 5 to 20 mg/kg, ip qd for 13 days; type: organism-based; conditions: in vivo, 312 h, dose 5-20 mg/kg, time 13 day
Mus musculus [31] = experiment: Restoration of immune function in C57BL/6J mouse implanted with mouse MC38 cells assessed as increase in serum IL-6 level administered intraperitoneally once daily for 13 days by ELISA; type: functional, organism-based; conditions: dose 5-20 mg/kg, route ip, time 13.0 day
[32] = Cytotoxicity against human L02 cells measured after 48 hrs by MTT assay; type: toxicity, cell-based
[33] = Toxicity in C57BL/6J mouse implanted with mouse MC38 cells assessed as heart weight ratio at 40 to 160 mg/kg, IG qd for 7 days; type: organism-based; conditions: in vivo, po, 168 h, dose 40-160 mg/kg, time 7 day
[34] = Toxicity in C57BL/6J mouse implanted with mouse MC38 cells assessed as drug tolerance at 5 to 20 mg/kg, ip qd for 13 days; type: organism-based; conditions: in vivo, 312 h, dose 5-20 mg/kg, time 13 day
[35] = Half life in Sprague-Dawley rat at 10 mg/kg, ip measured for 24 hrs by LC-MS/MS analysis; type: ADME, organism-based; conditions: in vivo
[36] = Tmax in Sprague-Dawley rat at 10 mg/kg, ip measured for 24 hrs by LC-MS/MS analysis; type: ADME, organism-based; conditions: in vivo
[37] = Toxicity in C57BL/6J mouse implanted with mouse MC38 cells assessed as change in kidney index at 5 to 20 mg/kg, ip qd for 13 days; type: organism-based; conditions: in vivo, 312 h, dose 5-20 mg/kg, time 13 day

## C[C@H](N)C(=O)N1Cc2ccc(-c3cccc(-c4ccc5c(c4)OCCO5)c3Cl)cc2C1.Cl
[1]
  AUC(0-t) at 24 h: 180 ng·h/mL
Mus musculus [2]
  Activity: Dose-dependent-effect
[3]
  Activity: Non-toxic
MC-38 [4]
  inhibition in vivo at 160 mg/kg: 64.4%
[5]
  Activity: Non-toxic
[6]
  Drug uptake: Dose-dependent-effect
[7]
  Activity: Non-toxic
[8]
  Activity: Non-toxic
[9]
  Activity: Non-toxic
PBMC
  inhibition: Active
[10]
  Activity: Non-toxic
[11]
  AUC(0-t) at 24 h: 1010 ng·h/mL
[12]
  Activity: Non-toxic
[13]
  Activity: Non-toxic
[14]
  Activity: Non-toxic
MC-38 [15]
  Activity: Time-dependent-effect
[16]
  Activity: Non-toxic
[17]
  Activity: Non-toxic
[18]
  Cmax: 412 ng/mL
[19]
  Activity: Non-toxic
MC-38 [20]
  inhibition: Dose-dependent-effect
[21]
  Activity: Non-toxic
[22]
  Activity: Non-toxic
[23]
  AUC(0-t) at 24 h: 467 ng·h/mL
[24]
  AUC(0-inf): 644 ng·h/mL
MC-38 [25]
  Activity: Active
[26]
  Activity: Non-toxic
[27]
  CL/F: 401 mL/min/kg
[28]
  clearance: 87.7 mL/min/kg
[29]
  bioavailability: 21.4%
[30]
  Activity: Non-toxic
Mus musculus [31]
  Activity: Dose-dependent-effect
[32]
  IC50 at 48 h: > 10 µM
[33]
  Activity: Non-toxic
[34]
  Activity: Non-toxic
[35]
  half-life: 4.02 h
[36]
  Tmax: 0.42 h
[37]
  Activity: Non-toxic
